Experimental data from patent publication US8802597B2, “Herbicidal pyrimidines” (E I du Pont de Nemours and Company, priority 2003, dated 2014).
Like-named read-outs stand apart in the source and are kept apart here.

Assays:
Format in all cases: in vivo
[1] = tested on: umbrella sedge (Cyperus difformis); test: Test B flooded paddy test; settings: Cyperus difformis, Flood, 1000 g ai/ha; scale 0 to 100; read-out: Plant response rating, Sedge, Umbrella
In short: (§1)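 Visual injury scoring (0 = no effect, 100 = complete control) versus controls made 13 to 15 days after treatment in the greenhouse. Test species were grown in flooded paddy to the 2-leaf stage: rice, barnyardgrass, umbrella sedge, duck salad.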

[2] = tested on: barnyardgrass (Echinochloa crus-galli); test: Test B flooded paddy test; settings: Echinochloa crus-galli, Flood, 1000 g ai/ha; scale 0 (no effect) to 100 (complete control); read-out: Plant response rating, Barnyardgrass
In short: as §1

rice (Oryza sativa) = test: Test B flooded paddy test; settings: Oryza sativa, Flood, 1000 g ai/ha; scale 0 to 100; read-out: Plant response rating, Rice
In short: as §1

[3] = tested on: duck salad (Heteranthera limosa); test: Test B flooded paddy test; settings: Heteranthera limosa, Flood, 1000 g ai/ha; scale 0 to 100; read-out: Plant response rating, Ducksalad
In short: as §1

wild oat (Avena fatua) = test: Test B postemergence; settings: Avena fatua, post-emergence
In short: (§2)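 Greenhouse whole-plant test; surfactant-containing non-phytotoxic solvent formulation; pre- and postemergence applications made simultaneously; post plants 2–18 cm, 1- to 4-leaf; visual scoring at 13–15 days on 0–100 scale relative to controls.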

[4] = tested on: blackgrass (Alopecurus myosuroides); test: Test B postemergence; settings: Alopecurus myosuroides, post-emergence
In short: as §2

[5] = tested on: crabgrass (Digitaria sanguinalis); test: Test B pre/postemergence; settings: Digitaria sanguinalis; for pest or weed control at 125 g/ha: 125 g ai/ha; for pest or weed control at 500 g/ha: 500 g ai/ha
In short: as §2

corn (Zea mays) = test: Test B pre/postemergence; settings: Zea mays
In short: as §2

[6] = tested on: barnyardgrass (Echinochloa crus-galli); test: Test B pre/postemergence; settings: Echinochloa crus-galli; for pest or weed control at 125 g/ha: 125 g ai/ha; for pest or weed control at 500 g/ha: 500 g ai/ha
In short: as §2

[7] = tested on: cocklebur (Xanthium strumarium); test: Test B pre/postemergence; settings: Xanthium strumarium; for pest or weed control at 125 g/ha: 125 g ai/ha; for pest or weed control at 500 g/ha: 500 g ai/ha
In short: as §2

[8] = tested on: pigweed (Amaranthus retroflexus); test: Test B pre/postemergence; settings: Amaranthus retroflexus; for pest or weed control at 125 g/ha: 125 g ai/ha; for pest or weed control at 500 g/ha: 500 g ai/ha
In short: as §2

[9] = tested on: giant foxtail (Setaria faberii); test: Test B pre/postemergence; settings: Setaria faberi; for pest or weed control at 125 g/ha: 125 g ai/ha; for pest or weed control at 500 g/ha: 500 g ai/ha
In short: as §2

[10] = tested on: Surinam grass (Brachiaria decumbens); test: Test B pre/postemergence; settings: Urochloa decumbens; for pest or weed control at 125 g/ha: 125 g ai/ha; for pest or weed control at 500 g/ha: 500 g ai/ha
In short: as §2

[11] = tested on: wheat (Triticum aestivum); test: Test B pre/postemergence; settings: Triticum aestivum; for plant injury at 125 g/ha: 125 g ai/ha; for plant injury at 500 g/ha: 500 g ai/ha
In short: as §2

[12] = tested on: lambsquarters (Chenopodium album); test: Test B pre/postemergence; settings: Chenopodium album; for pest or weed control at 125 g/ha: 125 g ai/ha; for pest or weed control at 500 g/ha: 500 g ai/ha
In short: as §2

[13] = tested on: velvetleaf (Abutilon theophrasti); test: Test B pre/postemergence; settings: Abutilon theophrasti; for pest or weed control at 125 g/ha: 125 g ai/ha; for pest or weed control at 500 g/ha: 500 g ai/ha
In short: as §2

[14] = tested on: morningglory (Ipomoea coccinea); test: Test B pre/postemergence; settings: Ipomoea; for pest or weed control at 125 g/ha: 125 g ai/ha; for pest or weed control at 500 g/ha: 500 g ai/ha
In short: as §2

## Nc1nc(C2CC2)nc(C=O)c1Br [Compound 26]
[1]
  pest or weed control at 1000 g/ha: 80%
[2]
  pest or weed control at 1000 g/ha: 60%
Rice (Oryza sativa)
  plant injury at 1000 g/ha: 70%
[3]
  pest or weed control at 1000 g/ha: 90%
Wild oat (Avena fatua); 125 g ai/ha, scale 0 to 100 (0 no effect, 100 complete control), read-out: Oat, Wild plant response rating
  pest or weed control at 125 g/ha: 30%
Wild oat (Avena fatua); 500 g ai/ha, scale 0 to 100, read-out: Plant response rating, Oat, Wild
  pest or weed control at 500 g/ha: 40%
[4]; 125 g ai/ha, scale 0 to 100 (0 no effect, 100 complete control), read-out: Blackgrass plant response rating
  pest or weed control at 125 g/ha: 40%
[4]; 500 g ai/ha, scale 0 to 100, read-out: Plant response rating, Blackgrass
  pest or weed control at 500 g/ha: 70%
[5]; post-emergence, Postemergence, scale 0 to 100 (0 no effect, 100 complete control), read-out: Crabgrass plant response rating
  pest or weed control at 125 g/ha: 40%
[5]; post-emergence, Postemergence, scale 0 to 100, read-out: Plant response rating, Crabgrass
  pest or weed control at 500 g/ha: 70%
[5]; pre-emergence, Preemergence, scale 0 to 100 (0 no effect, 100 complete control), read-out: Plant response rating, Crabgrass
  pest or weed control at 125 g/ha: 30%
[5]; pre-emergence, Preemergence, scale 0 to 100 (0 no effect, 100 complete control), read-out: Crabgrass plant response rating
  pest or weed control at 500 g/ha: 90%
Corn (Zea mays); post-emergence, Postemergence, 125 g ai/ha, scale 0 to 100 (0 no effect, 100 complete control), read-out: Corn plant response rating
  plant injury at 125 g/ha: 0%
Corn (Zea mays); post-emergence, Postemergence, 500 g ai/ha, scale 0 to 100
  Corn plant response rating (crop injury, 0 = no effect, 100 = complete kill) at 500 g/ha: 20%
Corn (Zea mays); pre-emergence, Preemergence, 125 g ai/ha, scale 0 to 100 (0 no effect, 100 complete control)
  Corn plant response rating (crop injury, 0 = no effect, 100 = complete kill) at 125 g/ha: 30%
Corn (Zea mays); pre-emergence, Preemergence, 500 g ai/ha, scale 0 to 100 (0 no effect, 100 complete control), read-out: Corn plant response rating
  plant injury at 500 g/ha: 80%
[6]; post-emergence, Postemergence, scale 0 to 100 (0 no effect, 100 complete control), read-out: Barnyardgrass plant response rating
  pest or weed control at 125 g/ha: 20%
[6]; post-emergence, Postemergence, scale 0 to 100, read-out: Plant response rating, Barnyardgrass
  pest or weed control at 500 g/ha: 60%
[6]; pre-emergence, Preemergence, scale 0 to 100 (0 no effect, 100 complete control), read-out: Plant response rating, Barnyardgrass
  pest or weed control at 125 g/ha: 50%
[6]; pre-emergence, Preemergence, scale 0 to 100 (0 no effect, 100 complete control), read-out: Barnyardgrass plant response rating
  pest or weed control at 500 g/ha: 90%
[7]; post-emergence, Postemergence, scale 0 to 100 (0 no effect, 100 complete control), read-out: Cocklebur plant response rating
  pest or weed control at 125 g/ha: 80%
[7]; post-emergence, Postemergence, scale 0 to 100, read-out: Plant response rating, Cocklebur
  pest or weed control at 500 g/ha: 90%
[7]; pre-emergence, Preemergence, scale 0 to 100 (0 no effect, 100 complete control), read-out: Plant response rating, Cocklebur
  pest or weed control at 125 g/ha: 80%
[7]; pre-emergence, Preemergence, scale 0 to 100 (0 no effect, 100 complete control), read-out: Cocklebur plant response rating
  pest or weed control at 500 g/ha: 90%
[8]; post-emergence, Postemergence, scale 0 to 100 (0 no effect, 100 complete control), read-out: Pigweed plant response rating
  pest or weed control at 125 g/ha: 70%
[8]; post-emergence, Postemergence, scale 0 to 100, read-out: Plant response rating, Pigweed
  pest or weed control at 500 g/ha: 80%
[8]; pre-emergence, Preemergence, scale 0 to 100 (0 no effect, 100 complete control), read-out: Plant response rating, Pigweed
  pest or weed control at 125 g/ha: 90%
[8]; pre-emergence, Preemergence, scale 0 to 100 (0 no effect, 100 complete control), read-out: Pigweed plant response rating
  pest or weed control at 500 g/ha: 100%
[9]; post-emergence, Postemergence, scale 0 to 100 (0 no effect, 100 complete control), read-out: Foxtail, Giant plant response rating
  pest or weed control at 125 g/ha: 30%
[9]; post-emergence, Postemergence, scale 0 to 100, read-out: Plant response rating, Foxtail, Giant
  pest or weed control at 500 g/ha: 40%
[9]; pre-emergence, Preemergence, scale 0 to 100 (0 no effect, 100 complete control), read-out: Plant response rating, Foxtail, Giant
  pest or weed control at 125 g/ha: 10%
[9]; pre-emergence, Preemergence, scale 0 to 100 (0 no effect, 100 complete control), read-out: Foxtail, Giant plant response rating
  pest or weed control at 500 g/ha: 80%
[10]; post-emergence, Postemergence, scale 0 to 100 (0 no effect, 100 complete control), read-out: Surinam Grass plant response rating
  pest or weed control at 125 g/ha: 30%
[10]; post-emergence, Postemergence, scale 0 to 100, read-out: Plant response rating, Surinam Grass
  pest or weed control at 500 g/ha: 60%
[10]; pre-emergence, Preemergence, scale 0 to 100 (0 no effect, 100 complete control), read-out: Plant response rating, Surinam Grass
  pest or weed control at 125 g/ha: 10%
[10]; pre-emergence, Preemergence, scale 0 to 100 (0 no effect, 100 complete control), read-out: Surinam Grass plant response rating
  pest or weed control at 500 g/ha: 80%
[11]; post-emergence, Postemergence, scale 0 to 100 (0 no effect, 100 complete control), read-out: Wheat plant response rating
  plant injury at 125 g/ha: 30%
[11]; post-emergence, Postemergence, scale 0 to 100, read-out: Plant response rating, Wheat
  plant injury at 500 g/ha: 30%
[11]; pre-emergence, Preemergence, scale 0 to 100 (0 no effect, 100 complete control), read-out: Plant response rating, Wheat
  plant injury at 125 g/ha: 30%
[11]; pre-emergence, Preemergence, scale 0 to 100 (0 no effect, 100 complete control), read-out: Wheat plant response rating
  plant injury at 500 g/ha: 60%
[12]; post-emergence, Postemergence, scale 0 to 100 (0 no effect, 100 complete control), read-out: Lambsquarters plant response rating
  pest or weed control at 125 g/ha: 70%
[12]; post-emergence, Postemergence, scale 0 to 100, read-out: Plant response rating, Lambsquarters
  pest or weed control at 500 g/ha: 80%
[12]; pre-emergence, Preemergence, scale 0 to 100 (0 no effect, 100 complete control), read-out: Plant response rating, Lambsquarters
  pest or weed control at 125 g/ha: 100%
[12]; pre-emergence, Preemergence, scale 0 to 100 (0 no effect, 100 complete control), read-out: Lambsquarters plant response rating
  pest or weed control at 500 g/ha: 100%
[13]; post-emergence, Postemergence, scale 0 to 100 (0 no effect, 100 complete control), read-out: Velvetleaf plant response rating
  pest or weed control at 125 g/ha: 40%
[13]; post-emergence, Postemergence, scale 0 to 100, read-out: Plant response rating, Velvetleaf
  pest or weed control at 500 g/ha: 70%
[13]; pre-emergence, Preemergence, scale 0 to 100 (0 no effect, 100 complete control), read-out: Plant response rating, Velvetleaf
  pest or weed control at 125 g/ha: 90%
[13]; pre-emergence, Preemergence, scale 0 to 100 (0 no effect, 100 complete control), read-out: Velvetleaf plant response rating
  pest or weed control at 500 g/ha: 100%
[14]; post-emergence, Postemergence, scale 0 to 100 (0 no effect, 100 complete control), read-out: Morningglory plant response rating
  pest or weed control at 125 g/ha: 70%
[14]; post-emergence, Postemergence, scale 0 to 100, read-out: Plant response rating, Morningglory
  pest or weed control at 500 g/ha: 80%
[14]; pre-emergence, Preemergence, scale 0 to 100 (0 no effect, 100 complete control), read-out: Plant response rating, Morningglory
  pest or weed control at 125 g/ha: 90%
[14]; pre-emergence, Preemergence, scale 0 to 100 (0 no effect, 100 complete control), read-out: Morningglory plant response rating
  pest or weed control at 500 g/ha: 100%
